Experimental data published in US6734182B2, “Aryl sulfonamides and sulfamide derivatives and uses thereof” (Synaptic Pharmaceutical Corporation, priority 1995, dated 2004).

Legend:
[1] = target: T1, human 5HT1Dβ receptor (Homo sapiens, UniProt P28222); assay: Binding to human 5HT1Dβ receptor ([3H]serotonin); conditions: cloned human receptor
T1 construct: expressed in transfected cells

[2] = target: T2, human α2A receptor (Homo sapiens, UniProt P08913); assay: Binding to cloned human α2A adrenergic receptor ([3H]rauwolscine)
T2 construct: expressed in transfected cells
T2 sequence (P08913 whole entry): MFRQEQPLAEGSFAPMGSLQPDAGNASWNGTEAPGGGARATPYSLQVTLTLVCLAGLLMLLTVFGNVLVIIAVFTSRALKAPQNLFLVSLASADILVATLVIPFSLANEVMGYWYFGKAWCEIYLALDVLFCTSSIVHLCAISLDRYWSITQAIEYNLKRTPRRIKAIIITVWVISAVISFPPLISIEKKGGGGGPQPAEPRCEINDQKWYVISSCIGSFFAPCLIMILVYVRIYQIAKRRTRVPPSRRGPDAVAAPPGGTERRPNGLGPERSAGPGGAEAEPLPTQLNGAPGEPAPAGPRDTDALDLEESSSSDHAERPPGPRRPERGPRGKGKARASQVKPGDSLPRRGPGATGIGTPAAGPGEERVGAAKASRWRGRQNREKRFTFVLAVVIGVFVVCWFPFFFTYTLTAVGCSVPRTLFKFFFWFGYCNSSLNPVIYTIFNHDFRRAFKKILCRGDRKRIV

[3] = target: T3, human 5HT1E receptor (Homo sapiens, UniProt P28566); assay: Binding to human 5HT1E receptor ([3H]serotonin); conditions: cloned human receptor
T3 construct: expressed in transfected cells
T3 sequence (P28566 whole entry): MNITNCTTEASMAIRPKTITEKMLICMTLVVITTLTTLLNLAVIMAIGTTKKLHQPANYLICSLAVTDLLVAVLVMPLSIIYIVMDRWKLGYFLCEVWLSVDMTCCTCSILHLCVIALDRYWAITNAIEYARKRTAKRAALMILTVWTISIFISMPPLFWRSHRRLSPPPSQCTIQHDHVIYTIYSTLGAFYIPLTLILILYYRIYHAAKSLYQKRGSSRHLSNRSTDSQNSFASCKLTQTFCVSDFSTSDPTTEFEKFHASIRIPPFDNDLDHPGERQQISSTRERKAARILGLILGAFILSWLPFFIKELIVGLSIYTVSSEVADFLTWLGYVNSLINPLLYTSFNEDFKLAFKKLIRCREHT
Method: 5HT1Dα, 5HT1Dβ, 5HT1E, 5HT1F Receptors: LM(tk−) clonal cell lines stably transfected with the genes encoding each of these 5HT receptor subtypes were prepared as described above. The cell line for the 5HT1Dα, receptor, designated as Ltk−8-30-84, was deposited on Apr. 17, 1990, and accorded ATCC Accession No. CRL 10421. The cell for the 5HT1Dβ receptor, designated as Ltk−11, was deposited on Apr. 17, 1990, and accorded ATCC Accession No. CRL 10422. The cell line for the 5HT1E receptor, designated 5 HT1E-7, was deposited on Nov. 6, 1991, and accorded ATCC Accession No. CRL 10913. The cell line for the 5HT1F receptor, designated L-5-HT1F, was deposited on Dec. 27, 1991, and accorded ATCC Accession No. ATCC 10957. Membrane preparations comprising these receptors were prepared as described below, and suspended in 50 mM Tris-HCl buffer (pH 7.4 at 37° C.) containing 10 mM MgCl2, 0.2 mM EDTA, 10 μM pargyline, and 0.1% ascorbate. The binding of compounds was determined in competition binding assays by incubation for 30 minutes at 37° C. in the presence of 5 nM [^3H) serotonin. Nonspecific binding was determined in the presence of 10 μM serotonin. The bound radioligand was separated by filtration through GF/B filters using a cell harvester.

[4] = target: T4, human Y1 receptor (Homo sapiens, UniProt P25929); assay: Radioligand binding to cloned human Y1 receptor (125I-PYY); conditions: cloned human Y1, stably transfected cells, read-out: Binding Affinity (K1 (nM) vs. 125I-PYY) Human Receptor Y1
T4 construct: expressed in transfected cells
T4 sequence (P25929 1-384): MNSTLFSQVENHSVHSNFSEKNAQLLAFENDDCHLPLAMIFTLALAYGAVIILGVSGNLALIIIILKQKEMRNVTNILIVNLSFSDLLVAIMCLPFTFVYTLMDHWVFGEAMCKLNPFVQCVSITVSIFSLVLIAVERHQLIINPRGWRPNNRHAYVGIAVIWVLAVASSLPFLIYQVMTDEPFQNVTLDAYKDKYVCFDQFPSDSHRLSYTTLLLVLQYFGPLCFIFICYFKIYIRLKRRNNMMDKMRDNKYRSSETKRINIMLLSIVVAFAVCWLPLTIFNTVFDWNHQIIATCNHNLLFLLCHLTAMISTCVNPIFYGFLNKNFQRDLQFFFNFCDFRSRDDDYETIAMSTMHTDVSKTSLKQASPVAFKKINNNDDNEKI

[5] = target: T5, human α2B receptor (Homo sapiens, UniProt P18089); assay: Binding to cloned human α2B adrenergic receptor ([3H]rauwolscine)
T5 construct: expressed in transfected cells
T5 sequence (P18089 whole entry): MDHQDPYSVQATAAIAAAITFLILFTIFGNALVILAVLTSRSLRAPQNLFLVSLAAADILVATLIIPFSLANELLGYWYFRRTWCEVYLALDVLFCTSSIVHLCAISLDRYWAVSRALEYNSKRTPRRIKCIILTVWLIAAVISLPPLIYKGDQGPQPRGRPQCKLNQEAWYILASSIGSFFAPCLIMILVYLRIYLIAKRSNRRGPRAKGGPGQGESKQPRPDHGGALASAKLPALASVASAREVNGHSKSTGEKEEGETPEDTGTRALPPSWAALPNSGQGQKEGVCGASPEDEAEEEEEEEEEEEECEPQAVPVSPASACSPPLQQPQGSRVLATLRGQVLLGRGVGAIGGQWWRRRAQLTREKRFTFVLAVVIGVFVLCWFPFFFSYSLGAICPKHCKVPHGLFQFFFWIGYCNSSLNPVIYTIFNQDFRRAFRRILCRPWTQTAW

[6] = target: T6, human 5HT2 receptor (Homo sapiens, UniProt P28223); assay: Binding to human 5HT2 receptor ([3H]ketanserin); conditions: cloned human receptor
T6 construct: expressed in transfected cells; host or cells: COS-7 cells (DEAE-dextran); the same paragraph also names the deposited line L-NGC-5HT2 (ATCC CRL 10287)
T6 sequence (P28223 whole entry): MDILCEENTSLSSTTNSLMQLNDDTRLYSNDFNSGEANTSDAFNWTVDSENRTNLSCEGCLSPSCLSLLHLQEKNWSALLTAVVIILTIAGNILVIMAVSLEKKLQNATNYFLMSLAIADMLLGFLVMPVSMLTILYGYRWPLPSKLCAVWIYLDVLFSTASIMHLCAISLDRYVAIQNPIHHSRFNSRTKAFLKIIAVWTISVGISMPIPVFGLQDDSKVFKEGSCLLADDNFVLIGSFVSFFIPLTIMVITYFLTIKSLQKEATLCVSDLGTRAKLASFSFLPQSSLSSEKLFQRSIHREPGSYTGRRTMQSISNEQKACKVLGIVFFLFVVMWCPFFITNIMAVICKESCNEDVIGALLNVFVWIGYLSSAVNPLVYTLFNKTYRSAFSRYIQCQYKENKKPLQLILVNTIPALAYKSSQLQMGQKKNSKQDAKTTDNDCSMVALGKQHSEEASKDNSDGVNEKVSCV

[7] = target: T7, cloned human Y5 receptor (Homo sapiens, UniProt Q15761); assay: Functional assay: block of NPY-induced inhibition of cAMP accumulation in forskolin-stimulated LM(tk-) cells (radioimmunoassay of cAMP); assay type: cell-based; conditions: antagonism of NPY-induced inhibition of cAMP accumulation, forskolin-stimulated LM(tk-) cells with human Y5; at least three experiments
T7 construct: expressed in transfected cells
T7 sequence (Q15761 1-445): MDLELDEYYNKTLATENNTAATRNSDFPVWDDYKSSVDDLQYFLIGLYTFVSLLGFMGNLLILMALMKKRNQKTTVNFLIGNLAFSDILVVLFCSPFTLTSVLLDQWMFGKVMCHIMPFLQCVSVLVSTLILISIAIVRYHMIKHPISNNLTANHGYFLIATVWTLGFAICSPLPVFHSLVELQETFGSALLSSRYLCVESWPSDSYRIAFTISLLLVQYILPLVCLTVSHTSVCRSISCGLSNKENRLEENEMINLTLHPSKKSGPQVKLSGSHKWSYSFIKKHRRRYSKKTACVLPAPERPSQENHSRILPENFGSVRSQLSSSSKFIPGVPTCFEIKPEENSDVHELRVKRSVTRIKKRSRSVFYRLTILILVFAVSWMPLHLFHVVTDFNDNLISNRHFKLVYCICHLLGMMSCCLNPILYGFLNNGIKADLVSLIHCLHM

[8] = target: T8, human α1d receptor (Homo sapiens, UniProt P25100); assay: Binding to cloned human α1d adrenergic receptor
T8 construct: expressed in transfected cells
T8 sequence (P25100 whole entry): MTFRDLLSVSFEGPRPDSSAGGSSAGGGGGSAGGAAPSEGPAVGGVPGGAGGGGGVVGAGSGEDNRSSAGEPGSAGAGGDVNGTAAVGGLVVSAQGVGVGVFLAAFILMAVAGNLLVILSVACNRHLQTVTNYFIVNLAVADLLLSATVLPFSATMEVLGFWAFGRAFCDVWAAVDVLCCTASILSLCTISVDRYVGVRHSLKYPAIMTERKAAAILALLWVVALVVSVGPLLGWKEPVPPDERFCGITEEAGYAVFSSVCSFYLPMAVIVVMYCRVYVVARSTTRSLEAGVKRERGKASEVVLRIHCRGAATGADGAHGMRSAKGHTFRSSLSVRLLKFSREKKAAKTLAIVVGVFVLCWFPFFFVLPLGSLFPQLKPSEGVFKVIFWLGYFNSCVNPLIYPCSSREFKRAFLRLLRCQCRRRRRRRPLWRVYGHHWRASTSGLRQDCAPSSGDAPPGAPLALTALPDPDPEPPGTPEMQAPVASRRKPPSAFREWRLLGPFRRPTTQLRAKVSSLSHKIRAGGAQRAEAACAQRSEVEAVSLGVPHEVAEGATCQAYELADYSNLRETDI

[9] = target: T9, human Y5 receptor (Homo sapiens, UniProt Q15761); assay: Radioligand binding to cloned human Y5 receptor (125I-PYY); conditions: cloned human Y5, stably transfected cells, read-out: Binding Affinity (K1 (nM) vs. 125I-PYY) Human Receptor Y5
T9 construct: expressed in transfected cells
T9 sequence (Q15761 1-445): T7 sequence (Q15761 1-445)

[10] = target: T10, human α1b receptor (Homo sapiens, UniProt P35368); assay: Binding to cloned human α1b adrenergic receptor
T10 construct: expressed in transfected cells
T10 sequence (P35368 whole entry): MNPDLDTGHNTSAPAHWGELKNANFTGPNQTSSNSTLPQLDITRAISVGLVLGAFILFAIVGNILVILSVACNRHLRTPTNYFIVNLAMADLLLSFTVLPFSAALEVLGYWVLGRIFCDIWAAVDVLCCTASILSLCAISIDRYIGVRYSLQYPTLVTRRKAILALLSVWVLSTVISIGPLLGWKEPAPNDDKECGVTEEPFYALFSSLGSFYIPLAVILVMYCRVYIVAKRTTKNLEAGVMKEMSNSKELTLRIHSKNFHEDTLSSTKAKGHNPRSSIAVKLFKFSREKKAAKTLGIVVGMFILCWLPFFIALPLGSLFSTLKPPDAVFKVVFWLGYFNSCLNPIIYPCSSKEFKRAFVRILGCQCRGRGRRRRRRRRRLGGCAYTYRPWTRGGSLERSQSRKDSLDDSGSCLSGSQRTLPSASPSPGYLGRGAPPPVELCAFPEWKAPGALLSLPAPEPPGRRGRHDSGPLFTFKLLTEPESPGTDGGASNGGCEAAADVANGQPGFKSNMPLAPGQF

T1 sequence (P28222 whole entry): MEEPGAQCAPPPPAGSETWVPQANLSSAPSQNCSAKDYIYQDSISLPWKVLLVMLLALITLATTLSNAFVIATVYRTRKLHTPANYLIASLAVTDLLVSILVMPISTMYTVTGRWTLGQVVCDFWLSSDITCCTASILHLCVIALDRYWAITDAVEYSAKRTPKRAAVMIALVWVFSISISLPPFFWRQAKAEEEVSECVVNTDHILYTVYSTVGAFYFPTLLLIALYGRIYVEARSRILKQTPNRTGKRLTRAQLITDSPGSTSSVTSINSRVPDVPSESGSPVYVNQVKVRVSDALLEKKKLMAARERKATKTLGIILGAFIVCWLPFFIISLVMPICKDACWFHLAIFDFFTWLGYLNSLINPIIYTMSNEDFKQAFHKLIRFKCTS

Receptor (pKi) 5HT1Dβ [1]	Receptor (pKi) α2a [2]	Receptor (pKi) 5HT1E [3]	Ki [4] [nM]	Receptor (pKi) α2b [5]	Receptor (pKi) 5HT2 [6]	Kb [7] [nM]	Receptor (pKi) α1d [8]	Ki [9] [nM]	Receptor (pKi) α1b [10]	Structure (SMILES)
≤ 5.30	6.74	≤ 5.30	3550	6.58	6.55	23	6.90	11	7.35	Cl.O=S(=O)(NCC1CCC(CNCC2CCc3ccccc3C2)CC1)c1cccc2ccccc12 (centres unmarked) [Example 32]
5.37	7.31	≤ 5.30	16000	6.96	5.93	26	7.01	8.3	7.22	Cl.O=[N+]([O-])c1ccccc1S(=O)(=O)NCC1CCC(CNCC2CCc3ccccc3C2)CC1 (centres unmarked) [Example 36]
